The numbers were not newly measured in patent publication US20070166380A1, “ZOLPIDEM TABLETS” (priority 2005, published 2007), which cites them from elsewhere.

For this data set the following is noted: after ingestion of the tablet.

As to `Cc1ccc(-c2nc3ccc(C)cn3c2CC(=O)N(C)C)cc1` [zolpidem, N,N,6-trimethyl-2-(4-methylphenyl)-imidazo [1,2-s]pyridine-3-acetamide], the “time until zolpidem starts acting” value ('or less') was 15 to 30 min. Further, the duration of action (approximately) was 4 to 6 h.
